Experimental data as given in PMC7136958, “Targeting the pregnane X receptor using microbial metabolite mimicry” (EMBO Molecular Medicine, 2020).
“And” between values parts separate entries of the source, which are not always exact repeats. Equal values may be shown once.

Legend:
[1] = biological target: T1, PXR (Homo sapiens, UniProt O75469); test: PXR reporter (p3A4-luc luciferase) assay in LS180 cells transiently transfected with wild-type PXR; conditions: for fold induction at 0.001 µM / fold induction at 0.01 µM / fold induction at 0.1 µM / fold induction at 1 µM / fold induction at 10 µM / fold induction at 25 µM: LS180, read-out: FOLD INDUCTION of PXR reporter luciferase activity; for FOLD INDUCTION of PXR reporter luciferase activity: 24 h, over UT
T1 sequence (O75469 1-434): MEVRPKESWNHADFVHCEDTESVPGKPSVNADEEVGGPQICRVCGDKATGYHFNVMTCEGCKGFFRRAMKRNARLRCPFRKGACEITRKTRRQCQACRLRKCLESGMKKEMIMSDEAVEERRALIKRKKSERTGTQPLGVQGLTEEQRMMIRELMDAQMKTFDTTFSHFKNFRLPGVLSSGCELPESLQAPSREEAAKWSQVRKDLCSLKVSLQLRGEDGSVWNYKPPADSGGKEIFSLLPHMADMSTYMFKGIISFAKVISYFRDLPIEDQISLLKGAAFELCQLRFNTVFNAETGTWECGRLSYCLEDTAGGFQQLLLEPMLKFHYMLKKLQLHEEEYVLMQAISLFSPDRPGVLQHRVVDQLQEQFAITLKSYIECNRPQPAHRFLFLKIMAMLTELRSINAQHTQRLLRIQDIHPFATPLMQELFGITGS

[2] = biological target: T2, AhR (Homo sapiens, UniProt P35869); test: AhR reporter assay, HepG2 cells stably expressing pCYP1A1 luciferase (AZ-AHR); assay type: cell-based; conditions: AZ-AHR cells, fold vs DMSO; for fold induction at 24 h, 0.001 µM / fold induction at 24 h, 0.01 µM / fold induction at 24 h, 0.1 µM / fold induction at 24 h, 1 µM / fold induction at 24 h, 10 µM: human
T2 construct: endogenous in cells; host or cells: AZ-AHR (HepG2)
T2 sequence (P35869 11-848): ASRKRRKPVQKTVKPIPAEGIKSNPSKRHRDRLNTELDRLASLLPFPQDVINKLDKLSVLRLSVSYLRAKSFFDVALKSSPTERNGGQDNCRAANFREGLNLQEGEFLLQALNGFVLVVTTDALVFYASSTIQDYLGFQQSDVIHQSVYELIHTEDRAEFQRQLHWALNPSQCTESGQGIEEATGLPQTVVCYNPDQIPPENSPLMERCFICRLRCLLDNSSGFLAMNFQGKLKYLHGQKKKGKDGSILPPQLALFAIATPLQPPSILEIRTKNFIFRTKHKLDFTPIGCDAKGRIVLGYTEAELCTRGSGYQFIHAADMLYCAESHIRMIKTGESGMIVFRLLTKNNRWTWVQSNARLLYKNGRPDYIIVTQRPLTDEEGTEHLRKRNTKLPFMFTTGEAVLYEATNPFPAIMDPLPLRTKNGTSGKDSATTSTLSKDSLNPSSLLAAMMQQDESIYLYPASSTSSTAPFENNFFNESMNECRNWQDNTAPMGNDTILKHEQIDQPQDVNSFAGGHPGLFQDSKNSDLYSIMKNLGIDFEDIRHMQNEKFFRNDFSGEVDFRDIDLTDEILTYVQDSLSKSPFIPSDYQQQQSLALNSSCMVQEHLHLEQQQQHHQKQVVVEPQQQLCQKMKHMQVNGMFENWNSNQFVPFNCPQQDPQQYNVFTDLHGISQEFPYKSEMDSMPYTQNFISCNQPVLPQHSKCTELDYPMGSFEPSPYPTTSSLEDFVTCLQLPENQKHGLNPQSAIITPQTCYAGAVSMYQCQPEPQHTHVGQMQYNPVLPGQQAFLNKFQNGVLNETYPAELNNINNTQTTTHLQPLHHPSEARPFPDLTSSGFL
Description: Incubations were performed in four technical replicates.

[3] = tested on: TLR4, CYP3A4, MDR1 mRNA in Caco-2 cells; test: RT-qPCR of TLR4, CYP3A4, MDR1 mRNA in PXR-transfected Caco-2 cells; assay type: cell-based, human; conditions: 10 μM; for CYP3A4 mRNA expression / MDR1 mRNA expression (Fold Change) / TLR4 mRNA expression: 24 h; for CYP3A4 Mean Fold expression / MDR1 Mean Fold expression / hTLR4 Mean Fold expression: DMSO = 1
Description: RT–qPCR was performed using Thermo Fisher PowerUp SYBR Green Master Mix (# A25742) and Thermo Fisher qPCR 7900HT. Each sample was repeated in quadruplicate and normalized to internal control, GAPDH. The entire experiment was repeated at least two separate times. The primer sequences are noted in Table 2.

[4] = tested on: S. typhimurium 14038; test: Salmonella invasion in iPSC-derived human intestinal organoids; assay type: cell-based, Salmonella typhimurium; conditions: for salmonella invasion vs cytokines alone: 2, 4, 6, 12 h; for basal salmonella invasion: 10 and 25 μM; for Salmonella CFU/ml: HIO, triplicate
Description: FKK compounds were tested for their ability to prevent Salmonella invasion in vitro in non‐inflamed and inflamed cell cultures. Overnight cultures of S. typhimurium 14038 were diluted to OD600 0.01 and injected into with HIOs or immersed over Caco‐2 monolayers for 1 h at 37°C. The invasive ability of Salmonella was assessed using the gentamicin protection assay (Gagnon et al, 2013). Bacterial adhesion scenarios to the Caco‐2 surface were set up as described above. Non‐adhered bacteria were removed by washing twice in PBS, followed by incubation with 1 ml gentamicin (150 μg/ml in DMEM) for 1 h at 37°C to kill the adhered extracellular bacteria. Dead bacteria were removed by washing twice in PBS, followed by incubation with 500 μl 0.1% Triton X‐100 for 15 min at 37°C to lyse the HIOs and Caco‐2, and release the intracellular (invaded) bacteria. Serial fold dilutions and plating were then employed to determine CFU/ml. We normalized to total protein using Bradford assay.

[5] = compound 10µm, no cytokines, 4 hr
[6] = cytokines + compound 10µm, 12 hr

Row | SMILES | aver (mean luciferase signal of H1-H4) ([1]; 1 nM) | aver (mean luciferase signal of H1-H4) ([1]; 10 nM) | aver (mean luciferase signal of H1-H4) ([1]; 100 nM) | aver (mean luciferase signal of H1-H4) ([1]; 1 uM) | aver (mean luciferase signal of H1-H4) ([1]; 10 uM) | aver (mean luciferase signal of H1-H4) ([1]; 25 uM) | fold induction at 0.001 µM [1] | fold induction at 0.01 µM [1] | fold induction at 0.1 µM [1] | fold induction at 1 µM [1] | fold induction at 10 µM [1] | fold induction at 25 µM [1] | fold induction at 24 h, 0.001 µM ([2]; 1 nM) | fold induction at 24 h, 0.01 µM ([2]; 10 nM) | fold induction at 24 h, 0.1 µM ([2]; 100 nM) | fold induction at 24 h, 1 µM ([2]; 1µM) | fold induction at 24 h, 10 µM ([2]; 10 µM) | CYP3A4 mRNA expression [3] [fold] | MDR1 mRNA expression (Fold Change) [3] [fold] | TLR4 mRNA expression [3] [fold] | also measured
1 | C#CCC(O)(c1ccncc1)c1cc2ccccc2n1S(=O)(=O)c1ccccc1 (stereo not shown) [FKK6] | 5692.0 | 9322.0 | 9089.3 | 73854.3 | 113299.3 | 99812.0 | 1.8 | 2.9 | 2.8 | 23.1 | 35.5 | 31.3 | 0.8 | 0.7 | 0.8 | 1.1 | 3.2 | 3.29 | 6.45 | 0.49 | PXR activation (in words) ([1]; cell-based transactivation): activated human PXR; CYP3A4 Mean Fold expression [3]: 3.29; MDR1 Mean Fold expression [3]: 6.45; hTLR4 Mean Fold expression [3]: 0.49; salmonella invasion vs cytokines alone [4]: significantly reduced; basal salmonella invasion [4]: no significant effect; Salmonella CFU/ml [4, 5]: 370 CFU/ml and 296 CFU/ml and 591 CFU/ml; Salmonella CFU/ml ([4]; compound 25µm, no cytokines, 6 hr): 277 CFU/ml and 280 CFU/ml and 238 CFU/ml; Salmonella CFU/ml ([4]; cytokines + compound 10µm, 2 hr): 234 CFU/ml and 133 CFU/ml and 134 CFU/ml; Salmonella CFU/ml [4, 6]: 362 CFU/ml and 381 CFU/ml and 340 CFU/ml; Salmonella CFU/ml ([4]; cytokines + compound 25µm, 2 hr): 193 CFU/ml and 132 CFU/ml and 164 CFU/ml; Salmonella CFU/ml ([4]; cytokines + compound 25µm, 4 hr): 200 CFU/ml and 140 CFU/ml and 164 CFU/ml; Salmonella CFU/ml ([4]; cytokines + compound 25µm, 6 hr): 189 CFU/ml and 151 CFU/ml and 140 CFU/ml
2 | O=C(c1ccncc1)c1cc2ccccc2n1S(=O)(=O)c1ccccc1 [FKK5, (1-(phenylsulfonyl)-1H-indol-2-yl)(pyridin-4-yl)methanone] | 4417.0 | 4539.3 | 4741.5 | 29157.3 | 116028.0 | 119010.3 | 1.4 | 1.4 | 1.5 | 9.1 | 36.4 | 37.3 | 0.755 | 0.8 | 0.7 | 0.7 | 1.2 | 3.7 | 5.12 | 0.39 | CYP3A4 Mean Fold expression [3]: 3.7; MDR1 Mean Fold expression [3]: 5.12; hTLR4 Mean Fold expression [3]: 0.39; salmonella invasion vs cytokines alone [4]: significantly reduced; basal salmonella invasion [4]: no significant effect; Salmonella CFU/ml [4, 5]: 557 CFU/ml and 514 CFU/ml and 578 CFU/ml; Salmonella CFU/ml ([4]; compound 10µm, no cytokines, 12 hr): 447 CFU/ml and 508 CFU/ml and 480 CFU/ml; Salmonella CFU/ml [4, 6]: 459 CFU/ml and 469 CFU/ml and 548 CFU/ml; Salmonella CFU/ml ([4]; cytokines + compound 25µm, 12 hr): 474 CFU/ml and 339 CFU/ml and 439 CFU/ml
3 | O=S(=O)(c1ccccc1)n1c(C(O)c2ccncc2)cc2ccccc21 (racemic) [FKK1] | 3470.0 | 3768.8 | 3738.8 | 28708.8 | 56319.0 | 51971.3 | – | – | – | – | – | – | – | – | – | – | – | – | – | – | FOLD INDUCTION of PXR reporter luciferase activity ([1]; 1 nM): 1.6 fold; FOLD INDUCTION of PXR reporter luciferase activity ([1]; 10 nM): 1.8 fold; FOLD INDUCTION of PXR reporter luciferase activity ([1]; 100 nM): 1.7 fold; FOLD INDUCTION of PXR reporter luciferase activity ([1]; 1 uM): 13.4 fold; FOLD INDUCTION of PXR reporter luciferase activity ([1]; 10 uM): 26.3 fold; FOLD INDUCTION of PXR reporter luciferase activity ([1]; 25 uM): 24.3 fold; FOLD INDUCTION (AZ-AHR luciferase) ([2]; 1 nM): 0.7 fold; FOLD INDUCTION (AZ-AHR luciferase) ([2]; 10 nM): 0.746 fold; FOLD INDUCTION (AZ-AHR luciferase) ([2]; 100 nM): 1.1 fold; FOLD INDUCTION (AZ-AHR luciferase) ([2]; 1µM): 0.9 fold; FOLD INDUCTION (AZ-AHR luciferase) ([2]; 10 µM): 2.8 fold
